Tests used:
[1] = molecular target: Maternal embryonic leucine zipper kinase (Homo sapiens) (UniProt Q14680); experiment: MELK SGC Tm panel (DSF); settings: Compound concentration 20.0 uM
[2] = molecular target: T1, Zinc finger and BTB domain-containing protein 11 (Homo sapiens) (UniProt O95625); settings: SUD4, Compound concentration 1.0 uM
T1 sequence (whole entry): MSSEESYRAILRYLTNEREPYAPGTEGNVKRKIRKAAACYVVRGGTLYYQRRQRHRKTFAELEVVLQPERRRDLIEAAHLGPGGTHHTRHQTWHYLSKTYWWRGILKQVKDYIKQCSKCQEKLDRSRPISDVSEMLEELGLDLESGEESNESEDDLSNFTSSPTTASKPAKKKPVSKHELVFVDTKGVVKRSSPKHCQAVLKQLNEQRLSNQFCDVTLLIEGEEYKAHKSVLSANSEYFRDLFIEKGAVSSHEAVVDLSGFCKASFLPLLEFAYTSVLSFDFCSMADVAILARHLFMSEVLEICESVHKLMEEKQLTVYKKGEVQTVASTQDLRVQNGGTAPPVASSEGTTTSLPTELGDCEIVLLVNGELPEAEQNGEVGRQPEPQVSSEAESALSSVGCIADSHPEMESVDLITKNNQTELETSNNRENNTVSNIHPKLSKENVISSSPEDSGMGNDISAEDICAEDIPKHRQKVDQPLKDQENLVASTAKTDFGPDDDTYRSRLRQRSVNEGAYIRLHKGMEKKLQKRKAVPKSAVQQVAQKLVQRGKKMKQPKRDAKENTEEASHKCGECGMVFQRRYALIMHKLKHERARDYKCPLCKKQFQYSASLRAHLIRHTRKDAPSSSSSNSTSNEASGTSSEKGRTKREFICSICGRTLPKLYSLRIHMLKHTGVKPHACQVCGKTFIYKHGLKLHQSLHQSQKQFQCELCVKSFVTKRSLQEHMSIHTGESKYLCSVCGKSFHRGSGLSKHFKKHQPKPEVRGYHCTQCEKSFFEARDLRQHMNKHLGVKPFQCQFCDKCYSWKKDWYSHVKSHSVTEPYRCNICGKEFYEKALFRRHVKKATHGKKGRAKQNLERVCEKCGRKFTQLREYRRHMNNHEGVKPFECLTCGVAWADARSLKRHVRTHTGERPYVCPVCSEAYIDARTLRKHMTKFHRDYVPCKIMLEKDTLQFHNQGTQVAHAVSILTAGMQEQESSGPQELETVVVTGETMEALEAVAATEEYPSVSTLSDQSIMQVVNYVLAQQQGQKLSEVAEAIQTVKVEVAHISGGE

[3] = molecular target: Casein kinase II subunit alpha' (Homo sapiens) (UniProt P19784); experiment: CSNK2A2 SGC Tm panel (DSF); settings: Compound concentration 20.0 uM
Sequence of Casein kinase II subunit alpha' (Homo sapiens) (P19784 whole entry, looked up): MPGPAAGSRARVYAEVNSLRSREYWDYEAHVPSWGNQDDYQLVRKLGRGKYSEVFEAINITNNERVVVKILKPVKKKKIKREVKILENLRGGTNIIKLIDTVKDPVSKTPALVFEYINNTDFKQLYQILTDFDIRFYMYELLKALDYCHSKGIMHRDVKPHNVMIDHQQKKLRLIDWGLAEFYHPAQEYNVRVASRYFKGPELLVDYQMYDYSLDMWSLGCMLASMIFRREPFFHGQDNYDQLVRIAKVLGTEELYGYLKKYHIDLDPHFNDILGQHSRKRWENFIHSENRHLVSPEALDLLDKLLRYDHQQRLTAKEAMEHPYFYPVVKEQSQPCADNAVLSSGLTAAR

[4] = molecular target: Beta-3 adrenergic receptor (Homo sapiens, UniProt P13945); settings: Compound concentration 10.0 uM
Sequence of Beta-3 adrenergic receptor (P13945 whole entry, looked up): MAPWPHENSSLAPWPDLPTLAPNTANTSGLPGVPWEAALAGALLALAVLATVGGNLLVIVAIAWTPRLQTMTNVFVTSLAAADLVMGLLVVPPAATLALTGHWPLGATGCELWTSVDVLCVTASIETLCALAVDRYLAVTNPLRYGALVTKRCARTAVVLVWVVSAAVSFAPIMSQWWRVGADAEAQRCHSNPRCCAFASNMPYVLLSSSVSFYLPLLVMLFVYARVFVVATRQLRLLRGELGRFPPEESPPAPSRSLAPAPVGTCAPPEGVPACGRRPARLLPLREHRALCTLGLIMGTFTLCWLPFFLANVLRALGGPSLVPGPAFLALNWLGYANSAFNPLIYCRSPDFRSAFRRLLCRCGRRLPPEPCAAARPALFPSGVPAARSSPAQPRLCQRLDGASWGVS

[5] = molecular target: Transcription regulator protein BACH2 (Homo sapiens) (UniProt Q9BYV9); settings: OCI-Ly1, Compound concentration 1.0 uM
Sequence of Transcription regulator protein BACH2 (Homo sapiens) (Q9BYV9 whole entry): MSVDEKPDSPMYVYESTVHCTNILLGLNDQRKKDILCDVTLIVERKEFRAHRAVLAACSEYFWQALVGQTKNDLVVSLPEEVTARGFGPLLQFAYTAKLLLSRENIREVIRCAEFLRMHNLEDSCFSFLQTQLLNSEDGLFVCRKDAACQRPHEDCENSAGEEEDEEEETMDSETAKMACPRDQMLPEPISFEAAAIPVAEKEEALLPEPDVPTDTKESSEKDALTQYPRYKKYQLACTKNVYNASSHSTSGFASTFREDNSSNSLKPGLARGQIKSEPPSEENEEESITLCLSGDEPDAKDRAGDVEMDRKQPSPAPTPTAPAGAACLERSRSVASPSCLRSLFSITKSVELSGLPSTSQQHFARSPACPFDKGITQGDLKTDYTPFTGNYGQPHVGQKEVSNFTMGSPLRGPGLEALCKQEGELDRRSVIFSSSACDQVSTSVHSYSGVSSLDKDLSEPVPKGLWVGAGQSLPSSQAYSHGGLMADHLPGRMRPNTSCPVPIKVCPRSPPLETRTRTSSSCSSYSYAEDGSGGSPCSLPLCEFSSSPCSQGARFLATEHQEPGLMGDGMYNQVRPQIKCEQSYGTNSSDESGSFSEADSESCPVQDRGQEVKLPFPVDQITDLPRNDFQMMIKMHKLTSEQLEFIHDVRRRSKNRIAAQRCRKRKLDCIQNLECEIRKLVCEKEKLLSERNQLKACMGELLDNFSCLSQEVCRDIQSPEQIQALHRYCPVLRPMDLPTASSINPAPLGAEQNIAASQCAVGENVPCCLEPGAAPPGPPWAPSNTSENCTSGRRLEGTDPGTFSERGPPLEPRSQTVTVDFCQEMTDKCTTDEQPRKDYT

[6] = molecular target: Dual specificity protein kinase CLK3 (Homo sapiens) (UniProt P49761); experiment: CLK3 SGC Tm panel (DSF); settings: Compound concentration 20.0 uM
Sequence of Dual specificity protein kinase CLK3 (Homo sapiens) (P49761 whole entry, looked up): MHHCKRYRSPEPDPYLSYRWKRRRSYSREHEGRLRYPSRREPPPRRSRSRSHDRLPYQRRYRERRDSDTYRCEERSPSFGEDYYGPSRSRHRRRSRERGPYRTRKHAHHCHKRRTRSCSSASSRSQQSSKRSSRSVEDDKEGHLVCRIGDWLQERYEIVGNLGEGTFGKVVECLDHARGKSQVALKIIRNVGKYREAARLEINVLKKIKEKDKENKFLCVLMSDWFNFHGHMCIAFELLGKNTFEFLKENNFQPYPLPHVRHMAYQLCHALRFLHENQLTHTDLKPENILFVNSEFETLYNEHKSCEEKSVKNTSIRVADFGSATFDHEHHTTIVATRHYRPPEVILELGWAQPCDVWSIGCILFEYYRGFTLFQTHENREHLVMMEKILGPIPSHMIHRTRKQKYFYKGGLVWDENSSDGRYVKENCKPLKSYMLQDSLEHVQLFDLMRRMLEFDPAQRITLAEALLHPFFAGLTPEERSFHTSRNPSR

[7] = molecular target: Alpha-2A adrenergic receptor (Homo sapiens) (UniProt P08913); settings: Compound concentration 10.0 uM
Sequence of Alpha-2A adrenergic receptor (Homo sapiens) (P08913 whole entry): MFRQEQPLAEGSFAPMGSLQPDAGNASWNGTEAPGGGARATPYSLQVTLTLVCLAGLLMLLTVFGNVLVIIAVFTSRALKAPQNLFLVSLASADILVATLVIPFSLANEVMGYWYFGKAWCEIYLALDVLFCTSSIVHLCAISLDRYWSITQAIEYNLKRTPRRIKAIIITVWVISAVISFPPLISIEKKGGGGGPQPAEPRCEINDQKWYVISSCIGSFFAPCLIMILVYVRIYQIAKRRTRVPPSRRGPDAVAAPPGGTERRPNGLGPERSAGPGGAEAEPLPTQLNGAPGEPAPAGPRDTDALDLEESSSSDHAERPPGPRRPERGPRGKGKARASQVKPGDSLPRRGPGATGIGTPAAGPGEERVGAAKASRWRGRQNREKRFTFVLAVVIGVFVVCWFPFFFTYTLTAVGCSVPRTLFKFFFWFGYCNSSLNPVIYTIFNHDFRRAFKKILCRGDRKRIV

[8] = molecular target: Cyclin-dependent kinase-like 1 (Homo sapiens) (UniProt Q00532); experiment: CDKL1 SGC Tm panel (DSF); settings: Compound concentration 20.0 uM
Sequence of Cyclin-dependent kinase-like 1 (Homo sapiens) (Q00532 whole entry): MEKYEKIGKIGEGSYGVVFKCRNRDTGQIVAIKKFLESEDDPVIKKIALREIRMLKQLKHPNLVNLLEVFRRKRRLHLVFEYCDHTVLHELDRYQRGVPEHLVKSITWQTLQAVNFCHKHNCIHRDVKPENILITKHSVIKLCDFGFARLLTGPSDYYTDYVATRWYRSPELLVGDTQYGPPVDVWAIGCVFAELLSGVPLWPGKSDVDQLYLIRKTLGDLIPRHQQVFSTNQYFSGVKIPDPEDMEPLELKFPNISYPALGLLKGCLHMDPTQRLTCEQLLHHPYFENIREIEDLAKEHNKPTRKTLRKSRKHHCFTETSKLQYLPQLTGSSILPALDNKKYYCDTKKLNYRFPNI

[9] = molecular target: Alpha-2C adrenergic receptor (Homo sapiens) (UniProt P18825); settings: Compound concentration 10.0 uM
Sequence of Alpha-2C adrenergic receptor (Homo sapiens) (P18825 whole entry): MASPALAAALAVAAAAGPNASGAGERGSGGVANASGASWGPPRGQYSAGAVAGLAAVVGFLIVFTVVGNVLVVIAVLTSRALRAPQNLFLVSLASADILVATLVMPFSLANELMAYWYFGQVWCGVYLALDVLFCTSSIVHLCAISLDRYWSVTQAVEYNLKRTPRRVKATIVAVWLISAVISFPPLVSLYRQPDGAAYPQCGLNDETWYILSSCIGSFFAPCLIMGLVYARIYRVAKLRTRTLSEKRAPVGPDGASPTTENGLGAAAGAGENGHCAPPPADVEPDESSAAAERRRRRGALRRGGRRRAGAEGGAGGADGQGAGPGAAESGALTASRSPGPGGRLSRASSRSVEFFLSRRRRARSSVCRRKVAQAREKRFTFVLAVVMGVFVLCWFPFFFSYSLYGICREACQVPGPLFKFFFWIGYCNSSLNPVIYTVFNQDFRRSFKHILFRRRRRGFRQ

[10] = molecular target: T2, Transcriptional regulator Kaiso (Homo sapiens) (UniProt Q86T24); settings: SUD4, Compound concentration 1.0 uM
T2 sequence (whole entry): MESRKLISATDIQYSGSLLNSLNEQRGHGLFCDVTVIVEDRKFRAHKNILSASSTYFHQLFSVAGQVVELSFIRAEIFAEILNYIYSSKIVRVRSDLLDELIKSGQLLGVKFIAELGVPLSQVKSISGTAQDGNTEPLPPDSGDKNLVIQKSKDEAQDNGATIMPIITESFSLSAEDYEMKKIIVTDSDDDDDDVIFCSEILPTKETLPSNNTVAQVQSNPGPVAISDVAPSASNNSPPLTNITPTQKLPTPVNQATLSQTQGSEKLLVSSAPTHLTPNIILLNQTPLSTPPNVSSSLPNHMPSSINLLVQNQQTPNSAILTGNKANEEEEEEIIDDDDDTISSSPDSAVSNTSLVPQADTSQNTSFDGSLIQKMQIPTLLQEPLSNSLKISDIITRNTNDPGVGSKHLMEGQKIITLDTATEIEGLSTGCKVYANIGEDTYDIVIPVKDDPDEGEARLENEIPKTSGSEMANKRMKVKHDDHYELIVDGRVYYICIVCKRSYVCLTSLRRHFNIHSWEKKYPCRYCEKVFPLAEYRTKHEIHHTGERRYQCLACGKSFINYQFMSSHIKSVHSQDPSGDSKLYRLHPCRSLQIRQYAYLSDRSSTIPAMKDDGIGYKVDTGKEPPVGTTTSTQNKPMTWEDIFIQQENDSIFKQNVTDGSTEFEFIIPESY

[11] = molecular target: T3, Zinc finger and BTB domain-containing protein 2 (Homo sapiens) (UniProt Q8N680); settings: OCI-Ly1, Compound concentration 1.0 uM
T3 sequence (whole entry): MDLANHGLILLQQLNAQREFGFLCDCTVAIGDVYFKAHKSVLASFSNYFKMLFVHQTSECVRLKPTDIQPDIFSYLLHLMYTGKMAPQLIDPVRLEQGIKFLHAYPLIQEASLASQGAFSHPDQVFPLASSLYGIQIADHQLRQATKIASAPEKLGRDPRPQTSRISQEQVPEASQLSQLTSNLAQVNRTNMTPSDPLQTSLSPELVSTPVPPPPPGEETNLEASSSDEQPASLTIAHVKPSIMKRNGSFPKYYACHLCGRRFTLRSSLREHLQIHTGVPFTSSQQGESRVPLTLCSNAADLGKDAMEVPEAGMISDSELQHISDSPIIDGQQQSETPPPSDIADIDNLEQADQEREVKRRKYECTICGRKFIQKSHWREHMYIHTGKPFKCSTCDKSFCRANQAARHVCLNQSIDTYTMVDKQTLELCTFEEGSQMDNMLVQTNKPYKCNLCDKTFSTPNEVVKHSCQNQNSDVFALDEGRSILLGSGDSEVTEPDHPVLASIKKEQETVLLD

[12] = molecular target: Sodium-dependent dopamine transporter (Homo sapiens, UniProt Q01959); experiment: GPCRScan assay: inhibition of DAT; design: radioligand conc. used [nm] 3.6 – 16.0, parental cells stable HEK
Sequence of Sodium-dependent dopamine transporter (Q01959 whole entry): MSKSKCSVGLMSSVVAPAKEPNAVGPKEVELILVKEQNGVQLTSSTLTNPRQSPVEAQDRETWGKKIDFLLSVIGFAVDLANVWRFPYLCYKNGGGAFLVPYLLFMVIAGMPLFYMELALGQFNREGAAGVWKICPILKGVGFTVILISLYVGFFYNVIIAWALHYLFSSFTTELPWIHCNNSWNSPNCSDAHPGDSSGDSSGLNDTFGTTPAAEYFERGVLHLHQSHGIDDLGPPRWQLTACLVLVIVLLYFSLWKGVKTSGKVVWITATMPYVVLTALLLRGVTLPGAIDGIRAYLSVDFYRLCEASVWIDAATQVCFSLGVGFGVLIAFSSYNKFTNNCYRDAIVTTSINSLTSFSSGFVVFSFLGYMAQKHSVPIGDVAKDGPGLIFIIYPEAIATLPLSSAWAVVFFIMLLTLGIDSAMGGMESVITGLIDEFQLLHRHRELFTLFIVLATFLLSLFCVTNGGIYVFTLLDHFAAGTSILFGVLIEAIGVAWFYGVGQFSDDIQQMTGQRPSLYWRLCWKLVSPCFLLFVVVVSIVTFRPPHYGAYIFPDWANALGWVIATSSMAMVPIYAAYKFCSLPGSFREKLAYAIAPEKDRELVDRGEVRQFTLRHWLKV

Sequence of Maternal embryonic leucine zipper kinase (Homo sapiens) (Q14680 whole entry, looked up, the tested form may be a part): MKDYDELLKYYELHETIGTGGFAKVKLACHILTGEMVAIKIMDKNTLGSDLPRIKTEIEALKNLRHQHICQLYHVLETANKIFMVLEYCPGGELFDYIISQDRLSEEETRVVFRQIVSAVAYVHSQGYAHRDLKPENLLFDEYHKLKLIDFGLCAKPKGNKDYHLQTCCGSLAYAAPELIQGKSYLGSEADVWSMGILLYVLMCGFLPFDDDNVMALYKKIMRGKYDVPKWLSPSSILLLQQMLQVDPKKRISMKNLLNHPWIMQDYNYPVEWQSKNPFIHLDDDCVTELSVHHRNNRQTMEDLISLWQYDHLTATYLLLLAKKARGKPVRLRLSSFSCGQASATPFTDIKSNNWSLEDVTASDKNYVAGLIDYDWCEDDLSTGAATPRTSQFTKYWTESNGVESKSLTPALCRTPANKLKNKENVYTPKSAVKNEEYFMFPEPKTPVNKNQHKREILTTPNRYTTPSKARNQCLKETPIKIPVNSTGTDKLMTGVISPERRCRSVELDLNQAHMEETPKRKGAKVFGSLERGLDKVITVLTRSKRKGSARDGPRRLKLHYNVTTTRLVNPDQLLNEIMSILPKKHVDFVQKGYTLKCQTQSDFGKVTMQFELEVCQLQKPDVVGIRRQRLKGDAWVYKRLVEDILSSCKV

Tm [1]: 41 °C
LogFC [2]: 0.0341
Tm [3]: 43 °C
inhibition [4]: 65.3%
LogFC [5]: -0.00139
Tm [6]: 34 °C
inhibition [7]: 14%
Tm [8]: 45 °C
inhibition [9]: 15.1%
LogFC [10]: -0.022
LogFC [11]: 0.239
Ki ([12]; read-out: Ki): 5.09 µM
Ki ([12]; read-out: pKi (converted)): 4.9 µM
SMILES: C[C@@H]1CN(c2ncc(Cl)c(Nc3ccc4c(c3)n(CCC(C)(C)O)c(=O)n4C)n2)C[C@H](C)C1(F)F

Reference: ChEMBL document CHEMBL5058646 (2022)
